Assay results from US20260235593A1, “FRET BIOSENSOR RECOMBINANT PROTEINS” (The Regents of the University of California, priority 2023, published 2026).

Tests used:
Assay type in all cases: cell-based
protein kinase A (PKA) = test: FRET-based AKAR imaging of PKA activity in HeLa cells upon Fsk/IBMX stimulation
Text: In order to generate KARs that are both bright and photostable, we replaced one of the FPs in the prototypic FRET-based A kinase activity reporter AKAR4 with the self-labeling protein tag HaloTag, which can be flexibly labeled with synthetic fluorophores in different spectral regions. Here, we used a specific green-yellow HaloTag fluorophore (NGD, Table 1)^[12]. To identify the best FRET acceptor for HaloTag^(NGD), we selected a panel of 12 different RFPs with different excitation and emission properties. Given that the FRET efficiency depends not only on the distance between the donor and the acceptor fluorophore, but also on their relative orientation[^13], we tested two different domain orientations (HaloTag-RFP or RFP-HaloTag) and two different linker lengths (flexible linker with 14 amino acids or EV linker with 116 amino acids^[14], FIG. 1A). […] The 48 biosensors were transfected into HeLa cells, the HaloTag labeled with NGD, and the cells stimulated with 50 i.iM forskolin (Fsk) and 100 i.iM 3-isobutyl-1-methylxanthine (IBMX, FIG. 1B). […] We used NGD to label cpHaloTag and measured their response upon Fsk/IBMX stimulation. […] We overexpressed the reporters in HeLa cells and monitored changes in PKA activity after stimulation with 50 tM Fsk and 100 tM IBMX. […] We additionally quantified the on and off kinetics of the biosensor. […]

PKA = molecular target: T1, PKA (Homo sapiens, UniProt P17612); test: Multiplexed biosensor imaging in HEK293T cells: PKA activity (red/far-red HaloTag-AKAR); details: HEK293T cells co-expressing yellow/far-red HaloTag-EKAR and red/far-red HaloTag-AKAR; 100 ng/mL hEGF; Fsk and 100 μM IBMX together; M H89
T1 construct: endogenous in cells; host or cells: HEK293T; only the biosensors are transfected
Procedure: (§1) Cell culture and transfection HeLa and HEK293T cells were cultured in Dulbecco's modified Eagle medium (DMEM; Gibco) containing glucose (1 g/L) and supplemented with 10% (v/v) fetal bovine serum (Sigma-Aldrich) and 1% (v/v) penicillin-streptomycin (Pen-Strep; Sigma-Aldrich). NIH3T3 cells were cultured in DMEM (Gibco) containing glucose (1 g/L) and supplemented with 10% (v/v) fetal calf serum and 1% (v/v) Pen-Strep (Sigma-Aldrich). All cells were maintained in a humidified incubator at 37° C. with a 5% CO2 atmosphere. Before transfection, cells were plated onto sterile quartered 35-mm glass-bottomed dishes and grown to 50 to 70% confluence. Cells were then transfected using Lipofectamine 2000 (Invitrogen, HeLa) or PolyJet (SignaGen Laboratories, HEK293T and NIH3T3) and grown an additional 48 hours (HeLa, HEK293T) before imaging. NIH3T3 cells were changed to serum-free DMEM immediately before transfection, medium was changed to complete medium after 6 h. NIH3T3 cells were then serum-starved for 24 hours before imaging. HaloTag labeling was performed 24 h before imaging using synthetic fluorophores (Fluorophore-CA 500 nM, 24 h, 37° C.) in the respective medium. Synthetic fluorophores were kindly provided by Luke Lavis (Janelia Research Campus, JF669-CA, JFX646-CA and JF635) or Kai Johnsson (Max Planck Institute for Medical Research (Germany) and EPFL (Switzerland), NGD-CA). […]

ERK = test: Multiplexed biosensor imaging in HEK293T cells: ERK activity (yellow/far-red HaloTag-EKAR); details: HEK293T cells co-expressing yellow/far-red HaloTag-EKAR and red/far-red HaloTag-AKAR; 100 ng/mL hEGF
Procedure: as §1

Structure (SMILES) | FRET/yellow emission ratio after addition of H89 (protein kinase A (PKA); HeLa cells expressing RFP-HaloTag^(NGD) AKARs, H89 added after 8 minutes of Fsk/IBMX stimulation) | normalized FRET/donor ratio after addition of H89 (protein kinase A (PKA); HeLa cells expressing YFP-HaloTag^(JF669) AKARs, after 50 μM Fsk and 100 μM IBMX) | PKA activity (PKA) | ERK activity (ERK)
O=S(=O)(NCCNC/C=C/c1ccc(Br)cc1)c1cccc2cnccc12 [H89] | FRET/yellow emission ratio of most biosensors decreased | reversible | decrease in PKA activity | –
CC(C)Cn1c(=O)n(C)c(=O)c2[nH]cnc21 [IBMX, 3-isobutyl-1-methylxanthine] | – | – | rapid increase in PKA activity | –
O=C(Nc1ccc2[nH]nc(-c3ccncc3)c2c1)[C@@H]1CCN(CC(=O)N2CCN(c3ccc(-c4ncccn4)cc3)CC2)C1 [SCH772984] | – | – | – | only decreased ERK activity
